# Reference: patent US20110178179A1, “1-AMINO-ALKYLCYCLOHEXANE DERIVATIVES FOR THE TREATMENT OF COGNITIVE IMPAIRMENT IN TINNITUS” (MERZ PHARMA GmbH & CO. KGaA, priority 2008, published 2011)
# Key:
# [1] = system: subjects with subjective tinnitus of at least moderate severity; test: Double-blind placebo-controlled pilot trial of neramexane in tinnitus: THF-12 (TBF-12) questionnaire; assay type: in vivo, human; conditions: for TBF-12 functional-communicational score, Actual Mean ± SD / TBF-12 functional-communicational score, Neramexane - Placebo LSMean Diff. ± SE / TBF-12 functional-communicational score, Change Mean ± SD / TBF-12 functional-communicational score, Change LSMean: ITT-LOCF; for TBF-12 functional-communicational score, Change Mean ± SD / TBF-12 functional-communicational score, Change LSMean: baseline to Week 16; for TBF-12 functional-communicational score, Change LSMean: ANCOVA
# Protocol: The objective of this pilot project was to conduct a clinical trial to assess the efficacy of neramexane as a treatment for tinnitus. The primary objective of this study was to compare the efficacy, tolerability and safety of neramexane mesylate at three different dosages (25, 50 or 75 mg/d) with placebo in subjects with subjective tinnitus of at least moderate severity.
# (§1) In a double-blind, multicenter, randomized, placebo-controlled, parallel-group study, the efficacy of neramexane in subjects suffering from tinnitus of at least moderate severity was assessed. Approximately 100 patients, who fulfilled particular inclusion criteria and met none of particular exclusion criteria, were randomized to each of four double-blind treatment groups (neramexane mesylate 25, 50, 75 mg/d or placebo), resulting in approximately 400 patients in total.
# (§2) The double-blind, 16-week treatment period consisted of a 4-week uptitration period and a 12-week fixed-dose treatment period at maintenance b.i.d. dosing. In case of poor tolerability, however, the investigator could consider a dose reduction by 25 mg/d (or placebo, respectively). After the treatment phase, there was a 4-week follow-up period with no active treatment and concomitant therapy restrictions. In total, this study involved seven study visits: screening, baseline, and at the end of weeks 4, 8, 12, 16, and 20.
# Visit 1 (screening): After signing the consent form, the subject underwent a physical examination and clinical laboratory testing. Patient eligibility for the study was evaluated via a check of inclusion/exclusion criteria. An initial Tinnitus Interview was conducted. The subject also completed a Tinnitus-Beeinträchtigungs-Fragebogen (THF-12) (i.e., a 12-item German modified and validated version (Greimel K V et al., Tinnitus-Beeinträchtigungs-Fragebogen (THF-12). Manual. Frankfurt am Main: Swets & Zeitlinger B. V.; 2000) of the 25-item Tinnitus Handicap Inventory or THI (Newman C W, et al. Development of the Tinnitus Handicap Inven-tory. Arch Otolaryngol Head Neck Surg 1996; 122(2): 143-148; Newman C W, et al. Psychometric adequacy of the Tinnitus Handicap Inventory (THI) for evaluating treatment outcome. J Am Acad Audiol 1998; 9(2): 153-160.)), a Hospital Anxiety and Depression Scale—Depression Subscale (HADS-D) Questionnaire and a Hyperacusis (Geräuschüberempfindlichkeit-Fragenbogen (GÜF)) Questionnaire (if applicable).
# (§3) Study medication was dispensed at Visit 2 (baseline, day 0). Each patient received one blister box containing 5 blister cards (including one reserve blister) of double-blind study medication (i.e., […]). Subjects were instructed to take 2 tablets twice daily (4 tablets/d), beginning the day after dispensing of the study medication, until they returned for their next study visit (Visit 3). For those subjects assigned to receive active medication, some placebo tablets were incorporated into the dosing regimen to ensure blinding during the uptitration period. The target fixed-maintenance dose of 25, 50, or 75 mg neramexane mesylate/d was administered starting with the fifth week of double-blind treatment and was continued throughout the study. At each of the subsequent visits (Visits 3, 4, and 5, corresponding to end of week 4, 8 and 12) patients received another blister box containing 5 blister cards for the 4 week intervals, with double-blind medication for the intervening treatment period until the next study visit.
# Primary Outcome • The change in THF-12 total score from baseline (Visit 2) to the endpoint visit (Visit 6, i.e. Week 16) was the primary efficacy endpoint in this study. […]
# [2] = system: subjects with subjective tinnitus of at least moderate severity; test: Double-blind placebo-controlled pilot trial of neramexane in tinnitus: structured tinnitus interview, question 12/5 (concentration); assay type: in vivo, human; conditions: for Concentration: Affected (%) / Concentration: Affected n / Concentration: No effect (%) / Concentration: No effect n / Concentration: Prevented (%) / Concentration: Prevented n: ITT-LOCF
# Protocol: as §1, §2, §3
# Secondary Outcomes • THF-12 total score (values and absolute change from baseline) at all post-baseline visits except the endpoint visit. • Change in the THF-12 total score from Week 16 to Week 20 (values and absolute changes). • THF-12 factorial scores (values and absolute change from baseline, including the change from Week 16 to Week 20) at all post-baseline visits. • Hyperacusis questionnaire GÜF (“Geräuschüberempfindlichkeits-Fragebogen”), values and absolute change from baseline, including the change from Week 16 to Week 20, total and factorial scores at all post-baseline visits if hyperacusis was present. • Clinical global impression of change: item 27 of the tinnitus follow-up interview was summarized after dichotomization of the responses in any improvement (values 1, 2, 3) versus no improvement (values 4, 5, 6, 7) and in marked improvement (values 1, 2) versus no marked improvement (values 3, 4, 5, 6, 7). • Total score of HADS-D as well as the depression and anxiety subscale scores (values and absolute change from baseline, also the change from week 16 to week 20) at all post-baseline visits. • Values of tinnitus interview (initial and follow-up) at all post-baseline visits; absolute change from baseline and change from Week 16 to Week 20 for items 8, 9, 10, 19, 20, 21, 24, 25 and 26 of the follow-up interview.
# All efficacy analyses were performed on the ITT population using the last-observation-carried-forward (LOCF) approach. For sensitivity purposes an analysis of the per-protocol set and of observed cases was performed additionally. All statistical tests used for testing the primary efficacy (confirmatory testing) and secondary efficacy criteria (exploratory), and all other statistical tests used for exploratory analyses were two-sided hypothesis tests performed at the 5% significance level. For all variables standard descriptive statistics were calculated.
# [3] = biological target: α9/α10 nicotinic receptor (Rattus norvegicus, UniProt P43144+Q9JLB5); conditions: Plazas, et al., Eur J. Pharmacol., 2007; cited from earlier work
# Chain of α9/α10 nicotinic receptor (P43144 26-479): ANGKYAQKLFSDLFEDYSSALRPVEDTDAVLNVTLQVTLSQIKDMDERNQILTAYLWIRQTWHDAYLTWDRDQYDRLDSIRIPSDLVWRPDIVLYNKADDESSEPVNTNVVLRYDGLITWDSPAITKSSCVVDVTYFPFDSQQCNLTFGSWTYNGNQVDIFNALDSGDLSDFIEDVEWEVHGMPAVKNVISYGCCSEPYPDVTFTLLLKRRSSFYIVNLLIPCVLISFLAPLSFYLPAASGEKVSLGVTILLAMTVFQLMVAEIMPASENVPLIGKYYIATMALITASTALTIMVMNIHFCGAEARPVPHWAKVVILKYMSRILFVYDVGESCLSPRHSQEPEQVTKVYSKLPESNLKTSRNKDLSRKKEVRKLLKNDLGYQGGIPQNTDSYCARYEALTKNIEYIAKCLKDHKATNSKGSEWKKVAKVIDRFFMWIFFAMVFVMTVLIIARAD
# Chain of α9/α10 nicotinic receptor (Q9JLB5 25-447): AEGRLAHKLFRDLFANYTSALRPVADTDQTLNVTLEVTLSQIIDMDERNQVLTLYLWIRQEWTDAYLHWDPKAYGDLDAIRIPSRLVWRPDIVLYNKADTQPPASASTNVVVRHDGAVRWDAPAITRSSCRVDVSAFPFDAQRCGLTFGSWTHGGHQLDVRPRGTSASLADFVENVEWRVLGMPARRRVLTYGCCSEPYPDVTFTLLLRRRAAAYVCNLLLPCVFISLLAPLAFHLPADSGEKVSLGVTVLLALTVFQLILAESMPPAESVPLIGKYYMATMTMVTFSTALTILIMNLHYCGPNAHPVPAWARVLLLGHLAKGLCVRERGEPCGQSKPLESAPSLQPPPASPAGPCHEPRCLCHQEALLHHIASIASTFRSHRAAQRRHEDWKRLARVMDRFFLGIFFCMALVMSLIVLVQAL
# [4] = final daily doses of 50 or 75 mg, 16 weeks, distinct from placebo or low-dose (25 mg)
# [5] = Baseline, 25 mg/d group, N = 106
# [6] = Baseline, 50 mg/d group, N = 106
# [7] = Baseline, 75 mg/d group, N = 99
# [8] = Week 16 or end of treatment, 25 mg/d, N = 101
# [9] = Week 16 or end of treatment, 50 mg/d, N = 103
# [10] = Week 16 or end of treatment, 75 mg/d, N = 93
structure (smiles),measurement,setting,value
CC1(C)CC(C)(C)CC(C)(N)C1.CS(=O)(=O)O [neramexane mesylate],improvement of tinnitus as measured by the THF-12,"[1]; final daily doses of 50 or 75 mg, 16-week double-blind treatment, distinct from placebo or low-dose (25 mg)",clear improvement of their tinnitus
same,"improvement of cognition, item one (concentration) and item two (focused attention) of the functional-communicational subscore of the THF-12",[1]; [4],clear improvement of their cognition
same,"improvement of concentration, question 12/5 of the structured tinnitus interview",[2]; [4],clear improvement of their concentration
"CC1(C)CC(C)(C)CC(C)(N)C1 [Neramexane, 1-amino-1,3,3,5,5-pentamethylcyclohexane]","TBF-12 functional-communicational score, Actual Mean ± SD","[1]; Baseline, 25 mg/d group, n=106",5.0 ± 2.1
same,"TBF-12 functional-communicational score, Actual Mean ± SD","[1]; Baseline, 50 mg/d group, n=106",5.2 ± 1.9
same,"TBF-12 functional-communicational score, Actual Mean ± SD","[1]; Baseline, 75 mg/d group, n=99",5.1 ± 2.2
same,"TBF-12 functional-communicational score, Neramexane - Placebo LSMean Diff. ± SE","[1]; Week 16, 25 mg/d vs placebo",0.0 ± 0.2
same,"TBF-12 functional-communicational score, Actual Mean ± SD","[1]; Week 16, 25 mg/d, n=106",4.3 ± 2.5
same,"TBF-12 functional-communicational score, Neramexane - Placebo LSMean Diff. ± SE","[1]; Week 16, 50 mg/d vs placebo",−0.5 ± 0.2
same,"TBF-12 functional-communicational score, Actual Mean ± SD","[1]; Week 16, 50 mg/d, n=106",3.9 ± 2.2
same,"TBF-12 functional-communicational score, Neramexane - Placebo LSMean Diff. ± SE","[1]; Week 16, 75 mg/d vs placebo",−0.4 ± 0.2
same,"TBF-12 functional-communicational score, Actual Mean ± SD","[1]; Week 16, 75 mg/d, n=99",4.0 ± 2.5
same,"TBF-12 functional-communicational score, Change Mean ± SD",[1]; 25 mg/d,−0.7 ± 1.5
same,"TBF-12 functional-communicational score, Change LSMean",[1]; 25 mg/d,−0.7
same,"TBF-12 functional-communicational score, Change Mean ± SD",[1]; 50 mg/d,−1.2 ± 2.0
same,"TBF-12 functional-communicational score, Change LSMean",[1]; 50 mg/d,−1.2
same,"TBF-12 functional-communicational score, Change Mean ± SD",[1]; 75 mg/d,−1.1 ± 1.8
same,"TBF-12 functional-communicational score, Change LSMean",[1]; 75 mg/d,−1.0
same,effect on cognitive function in patients with tinnitus (conclusion of Example 1),[1]; patients with tinnitus,capability to improve cognitive function
same,Concentration: Affected (%),[2]; [5],(82.1) %
same,Concentration: Affected n,[2]; [5],87
same,Concentration: No effect (%),[2]; [5],(12.3) %
same,Concentration: No effect n,[2]; [5],13
same,Concentration: Prevented (%),[2]; [5],(5.7) %
same,Concentration: Prevented n,[2]; [5],6
same,Concentration: Affected (%),[2]; [6],(84.0) %
same,Concentration: Affected n,[2]; [6],89
same,Concentration: No effect (%),[2]; [6],(9.4) %
same,Concentration: No effect n,[2]; [6],10
same,Concentration: Prevented (%),[2]; [6],(6.6) %
same,Concentration: Prevented n,[2]; [6],7
same,Concentration: Affected (%),[2]; [7],(73.7) %
same,Concentration: Affected n,[2]; [7],73
same,Concentration: No effect (%),[2]; [7],(19.2) %
same,Concentration: No effect n,[2]; [7],19
same,Concentration: Prevented (%),[2]; [7],(7.1) %
same,Concentration: Prevented n,[2]; [7],7
same,Concentration: Affected (%),[2]; [8],(81.2) %
same,Concentration: Affected n,[2]; [8],82
same,Concentration: No effect (%),[2]; [8],(17.8) %
same,Concentration: No effect n,[2]; [8],18
same,Concentration: Prevented (%),[2]; [8],(1.0) %
same,Concentration: Prevented n,[2]; [8],1
same,Concentration: Affected (%),[2]; [9],(73.8) %
same,Concentration: Affected n,[2]; [9],76
same,Concentration: No effect (%),[2]; [9],(24.3) %
same,Concentration: No effect n,[2]; [9],25
same,Concentration: Prevented (%),[2]; [9],(1.9) %
same,Concentration: Prevented n,[2]; [9],2
same,Concentration: Affected (%),[2]; [10],(73.1) %
same,Concentration: Affected n,[2]; [10],68
same,Concentration: No effect (%),[2]; [10],(23.7) %
same,Concentration: No effect n,[2]; [10],22
same,Concentration: Prevented (%),[2]; [10],(3.2) %
same,Concentration: Prevented n,[2]; [10],3
same,activity at α9/α10 nicotinic receptor,[3],α9/α10 nicotinic receptor antagonist
